Test results from US12077503B2, “Substituted cyclic amides and their use as herbicides” (FMC CORPORATION, priority 2015, dated 2024).

What was measured:
Type in all cases: in vivo
[1] = system: barnyardgrass (Echinochloa crus-galli); assay: Test G Pre-Emergence Protocol; conditions: Echinochloa crus-galli, pre-emergence, 312 h, evaluated after 13 days; for pest or weed control at 15.625 g/ha: 15.625 g ai/ha; for pest or weed control at 15.625 g/ha / pest or weed control at 250 g/ha: read-out: Barnyardgrass damage rating (100=total damage to plant; 0=no damage to plant); for pest or weed control at 62.5 g/ha: 62.5 g ai/ha, 100=total damage to plant, 0=no damage to plant, read-out: Barnyardgrass damage rating; for pest or weed control at 250 g/ha: 250 g ai/ha
Procedure, shortened: (§1)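 Visual injury (0–100) at day 13 after a single pre-emergence spray. Rates: 15.625, 62.5, 250 g/ha in acetone–water 50:50 with 0.5% Tween 20. Growth conditions: 24/16° C, 14 h light, 65% humidity.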

corn (Zea mays) [2] = assay: Test G Pre-Emergence Protocol; conditions: Zea mays, pre-emergence, 312 h, evaluated after 13 days; for plant injury at 15.625 g/ha: 15.625 g ai/ha; for plant injury at 15.625 g/ha / plant injury at 250 g/ha: read-out: Corn damage rating (100=total damage to plant; 0=no damage to plant); for plant injury at 62.5 g/ha: 62.5 g ai/ha, 100=total damage to plant, 0=no damage to plant, read-out: Corn damage rating; for plant injury at 250 g/ha: 250 g ai/ha
Procedure, shortened: as §1

[3] = system: giant foxtail (Setaria faberi); assay: Test G Pre-Emergence Protocol; conditions: Setaria faberi, pre-emergence, 312 h, evaluated after 13 days; for pest or weed control at 15.625 g/ha: 15.625 g ai/ha; for pest or weed control at 15.625 g/ha / pest or weed control at 250 g/ha: read-out: Foxtail, Giant damage rating (100=total damage to plant; 0=no damage to plant); for pest or weed control at 62.5 g/ha: 62.5 g ai/ha, 100=total damage to plant, 0=no damage to plant, read-out: Foxtail, Giant damage rating; for pest or weed control at 250 g/ha: 250 g ai/ha
Procedure, shortened: as §1

[4] = system: ivy-leaved morning glory (Ipomoea hederacea); assay: Test G Pre-Emergence Protocol; conditions: Ipomoea, pre-emergence, 312 h, evaluated after 13 days; for pest or weed control at 62.5 g/ha: 62.5 g ai/ha, 100=total damage to plant, 0=no damage to plant, read-out: Morningglory, Ivy-leaved damage rating; for pest or weed control at 250 g/ha: 250 g ai/ha
Procedure, shortened: as §1

[5] = system: redroot pigweed (Amaranthus retroflexus); assay: Test G Pre-Emergence Protocol; conditions: Amaranthus retroflexus, pre-emergence, 312 h, evaluated after 13 days; for pest or weed control at 15.625 g/ha: 15.625 g ai/ha; for pest or weed control at 15.625 g/ha / pest or weed control at 250 g/ha: read-out: Pigweed, Redroot damage rating (100=total damage to plant; 0=no damage to plant); for pest or weed control at 62.5 g/ha: 62.5 g ai/ha, 100=total damage to plant, 0=no damage to plant, read-out: Pigweed, Redroot damage rating; for pest or weed control at 250 g/ha: 250 g ai/ha
Procedure, shortened: as §1

[6] = system: velvetleaf (Abutilon theophrasti); assay: Test G Pre-Emergence Protocol; conditions: Abutilon theophrasti, pre-emergence, 312 h, evaluated after 13 days; for pest or weed control at 15.625 g/ha: 15.625 g ai/ha; for pest or weed control at 15.625 g/ha / pest or weed control at 250 g/ha: read-out: Velvetleaf damage rating (100=total damage to plant; 0=no damage to plant); for pest or weed control at 62.5 g/ha: 62.5 g ai/ha, 100=total damage to plant, 0=no damage to plant, read-out: Velvetleaf damage rating; for pest or weed control at 250 g/ha: 250 g ai/ha
Procedure, shortened: as §1

[7] = system: barnyardgrass (Echinochloa crus-galli); assay: Test G Post-Emergence Protocol; conditions: Echinochloa crus-galli, post-emergence, 312 h, read-out: Barnyardgrass damage rating; for pest or weed control at 15.625 g/ha: 15.625 g ai/ha, evaluated after 13 days (100=total damage to plant; 0=no damage to plant); for pest or weed control at 62.5 g/ha: 62.5 g ai/ha; for pest or weed control at 62.5 g/ha / pest or weed control at 250 g/ha: evaluated after 13 days, 100=total damage to plant, 0=no damage to plant; for pest or weed control at 250 g/ha: 250 g ai/ha
Procedure, shortened: (§2)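 Eight days post-sowing, plants received a spray of test compound (acetone/water 50:50, 0.5% Tween 20) at 15.625, 62.5 or 250 g/ha. Glasshouse regime thereafter: 24/16 °C, 14 h light, 65% humidity. Assessment after 13 days on a 0–100 damage scale.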

corn (Zea mays) [8] = assay: Test G Post-Emergence Protocol; conditions: Zea mays, post-emergence, 312 h, read-out: Corn damage rating; for plant injury at 15.625 g/ha: 15.625 g ai/ha, evaluated after 13 days (100=total damage to plant; 0=no damage to plant); for plant injury at 62.5 g/ha: 62.5 g ai/ha; for plant injury at 62.5 g/ha / plant injury at 250 g/ha: evaluated after 13 days, 100=total damage to plant, 0=no damage to plant; for plant injury at 250 g/ha: 250 g ai/ha
Procedure, shortened: as §2

[9] = system: giant foxtail (Setaria faberi); assay: Test G Post-Emergence Protocol; conditions: Setaria faberi, post-emergence, 312 h, read-out: Foxtail, Giant damage rating; for pest or weed control at 15.625 g/ha: 15.625 g ai/ha, evaluated after 13 days (100=total damage to plant; 0=no damage to plant); for pest or weed control at 62.5 g/ha: 62.5 g ai/ha
Procedure, shortened: as §2

[10] = system: ivy-leaved morning glory (Ipomoea hederacea); assay: Test G Post-Emergence Protocol; conditions: Ipomoea, post-emergence, 312 h, read-out: Morningglory, Ivy-leaved damage rating; for pest or weed control at 15.625 g/ha: 15.625 g ai/ha, evaluated after 13 days (100=total damage to plant; 0=no damage to plant); for pest or weed control at 62.5 g/ha: 62.5 g ai/ha; for pest or weed control at 62.5 g/ha / pest or weed control at 250 g/ha: evaluated after 13 days, 100=total damage to plant, 0=no damage to plant; for pest or weed control at 250 g/ha: 250 g ai/ha
Procedure, shortened: as §2

[11] = system: redroot pigweed (Amaranthus retroflexus); assay: Test G Post-Emergence Protocol; conditions: Amaranthus retroflexus, post-emergence, 312 h, read-out: Pigweed, Redroot damage rating; for pest or weed control at 15.625 g/ha: 15.625 g ai/ha, evaluated after 13 days (100=total damage to plant; 0=no damage to plant); for pest or weed control at 62.5 g/ha: 62.5 g ai/ha; for pest or weed control at 62.5 g/ha / pest or weed control at 250 g/ha: evaluated after 13 days, 100=total damage to plant, 0=no damage to plant; for pest or weed control at 250 g/ha: 250 g ai/ha
Procedure, shortened: as §2

[12] = system: velvetleaf (Abutilon theophrasti); assay: Test G Post-Emergence Protocol; conditions: Abutilon theophrasti, post-emergence, 312 h, read-out: Velvetleaf damage rating; for pest or weed control at 15.625 g/ha: 15.625 g ai/ha, evaluated after 13 days (100=total damage to plant; 0=no damage to plant); for pest or weed control at 62.5 g/ha: 62.5 g ai/ha; for pest or weed control at 62.5 g/ha / pest or weed control at 250 g/ha: evaluated after 13 days, 100=total damage to plant, 0=no damage to plant; for pest or weed control at 250 g/ha: 250 g ai/ha
Procedure, shortened: as §2

[13] = read-out: Morningglory, Ivy-leaved damage rating (100=total damage to plant; 0=no damage to plant)
[14] = evaluated after 13 days, 100=total damage to plant, 0=no damage to plant

CN1C[C@H](c2ccc(F)c(F)c2)[C@@H](C(=O)Nc2cnccc2C(F)(F)F)C1=O (racemic) [Compound 1740]
pest or weed control at 15.625 g/ha [1]: 0% | pest or weed control at 62.5 g/ha [1]: 30% | pest or weed control at 250 g/ha [1]: 40% | plant injury at 15.625 g/ha (corn (Zea mays) [2]): 0% | plant injury at 62.5 g/ha (corn (Zea mays) [2]): 0% | plant injury at 250 g/ha (corn (Zea mays) [2]): 10% | pest or weed control at 15.625 g/ha [3]: 0% | pest or weed control at 62.5 g/ha [3]: 60% | pest or weed control at 250 g/ha [3]: 90% | pest or weed control at 15.625 g/ha ([4]; 15.625 g ai/ha, read-out: Morningglory, Ivy-leaved damage rating (100=total damage to plant; 0=no damage to plant)): 0% | pest or weed control at 62.5 g/ha [4]: 0% | pest or weed control at 250 g/ha [4, 13]: 0% | pest or weed control at 15.625 g/ha [5]: 0% | pest or weed control at 62.5 g/ha [5]: 0% | pest or weed control at 250 g/ha [5]: 40% | pest or weed control at 15.625 g/ha [6]: 0% | pest or weed control at 62.5 g/ha [6]: 0% | pest or weed control at 250 g/ha [6]: 50% | pest or weed control at 15.625 g/ha [7]: 0% | pest or weed control at 62.5 g/ha [7]: 0% | pest or weed control at 250 g/ha [7]: 20% | plant injury at 15.625 g/ha (corn (Zea mays) [8]): 0% | plant injury at 62.5 g/ha (corn (Zea mays) [8]): 0% | plant injury at 250 g/ha (corn (Zea mays) [8]): 0% | pest or weed control at 15.625 g/ha [9]: 0% | pest or weed control at 62.5 g/ha [9, 14]: 40% | pest or weed control at 15.625 g/ha [10]: 0% | pest or weed control at 62.5 g/ha [10]: 0% | pest or weed control at 250 g/ha [10]: 20% | pest or weed control at 15.625 g/ha [11]: 0% | pest or weed control at 62.5 g/ha [11]: 0% | pest or weed control at 250 g/ha [11]: 0% | pest or weed control at 15.625 g/ha [12]: 0% | pest or weed control at 62.5 g/ha [12]: 0% | pest or weed control at 250 g/ha [12]: 10%

CCOc1cc(C2CN(C)C(=O)C2C(=O)Nc2cccc(F)c2F)ccc1OC (stereo not shown) [Compound 1719]
pest or weed control at 15.625 g/ha [1]: 30% | pest or weed control at 62.5 g/ha [1]: 70% | pest or weed control at 250 g/ha [1]: 90% | plant injury at 15.625 g/ha (corn (Zea mays) [2]): 0% | plant injury at 62.5 g/ha (corn (Zea mays) [2]): 10% | plant injury at 250 g/ha (corn (Zea mays) [2]): 60% | pest or weed control at 15.625 g/ha [3]: 70% | pest or weed control at 62.5 g/ha [3]: 90% | pest or weed control at 250 g/ha [3]: 90% | pest or weed control at 62.5 g/ha [4]: 0% | pest or weed control at 250 g/ha [4, 13]: 0% | pest or weed control at 15.625 g/ha [5]: 0% | pest or weed control at 62.5 g/ha [5]: 0% | pest or weed control at 250 g/ha [5]: 20% | pest or weed control at 15.625 g/ha [6]: 0% | pest or weed control at 62.5 g/ha [6]: 0% | pest or weed control at 250 g/ha [6]: 0% | pest or weed control at 15.625 g/ha [7]: 0% | pest or weed control at 62.5 g/ha [7]: 60% | pest or weed control at 250 g/ha [7]: 80% | plant injury at 15.625 g/ha (corn (Zea mays) [8]): 0% | plant injury at 62.5 g/ha (corn (Zea mays) [8]): 0% | plant injury at 250 g/ha (corn (Zea mays) [8]): 60% | pest or weed control at 15.625 g/ha [9]: 60% | pest or weed control at 62.5 g/ha [9, 14]: 80% | pest or weed control at 250 g/ha ([9]; 250 g ai/ha, evaluated after 13 days, 100=total damage to plant, 0=no damage to plant): 80% | pest or weed control at 15.625 g/ha [10]: 0% | pest or weed control at 62.5 g/ha [10]: 10% | pest or weed control at 250 g/ha [10]: 20% | pest or weed control at 15.625 g/ha [11]: 0% | pest or weed control at 62.5 g/ha [11]: 0% | pest or weed control at 250 g/ha [11]: 0% | pest or weed control at 15.625 g/ha [12]: 0% | pest or weed control at 62.5 g/ha [12]: 0% | pest or weed control at 250 g/ha [12]: 0%
